Broadly, the Kd is a measure of binding affinity in units of concentration.

Four compounds from ChEMBL document CHEMBL1144953, “Anti-androgens with full antagonistic activity toward human prostate tumor LNCaP cells with mutated androgen receptor” (Bioorg Med Chem Lett, 2003) can be followed below.

This assay has as its target T1, Androgen receptor (Homo sapiens, UniProt P10275).
T1 sequence (P10275 whole entry): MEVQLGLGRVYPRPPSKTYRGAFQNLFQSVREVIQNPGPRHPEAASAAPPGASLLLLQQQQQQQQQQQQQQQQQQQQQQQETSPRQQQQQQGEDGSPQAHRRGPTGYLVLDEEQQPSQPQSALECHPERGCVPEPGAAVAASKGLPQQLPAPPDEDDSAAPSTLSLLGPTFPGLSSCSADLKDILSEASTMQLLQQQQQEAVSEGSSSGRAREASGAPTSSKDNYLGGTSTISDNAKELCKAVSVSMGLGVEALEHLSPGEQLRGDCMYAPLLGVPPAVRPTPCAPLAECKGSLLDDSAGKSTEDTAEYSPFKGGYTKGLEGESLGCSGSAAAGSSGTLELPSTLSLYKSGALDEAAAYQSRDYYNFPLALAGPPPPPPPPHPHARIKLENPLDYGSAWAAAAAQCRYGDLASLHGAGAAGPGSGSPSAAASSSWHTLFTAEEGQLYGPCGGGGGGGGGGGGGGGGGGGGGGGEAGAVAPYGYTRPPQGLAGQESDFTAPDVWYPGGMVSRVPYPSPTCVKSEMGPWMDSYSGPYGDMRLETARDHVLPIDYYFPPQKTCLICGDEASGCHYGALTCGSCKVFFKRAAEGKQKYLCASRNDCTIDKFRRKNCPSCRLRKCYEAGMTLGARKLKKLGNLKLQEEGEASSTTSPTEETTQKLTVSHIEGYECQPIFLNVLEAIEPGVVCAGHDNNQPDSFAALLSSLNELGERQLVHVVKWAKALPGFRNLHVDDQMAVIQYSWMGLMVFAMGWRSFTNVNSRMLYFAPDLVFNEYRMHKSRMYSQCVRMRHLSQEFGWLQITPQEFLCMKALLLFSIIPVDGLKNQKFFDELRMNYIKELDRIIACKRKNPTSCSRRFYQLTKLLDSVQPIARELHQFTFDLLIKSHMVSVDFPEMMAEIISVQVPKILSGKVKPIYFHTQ
In words: Dissociation constant against GST-hARLBD was measured in SC-3 cell by using [3H]testosterone as radioligand. It is filed as cell-based.

With `O=C1ON=C(c2ccc(O)cc2)/C1=C/c1ccc(N2CCCC2)cc1`, the affinity, expressed as Kd, was 1.4 nM. The value for `O=C1ON=C(c2ccc(F)cc2)/C1=C/c1ccc(N2CCCC2)cc1` was 1.4 nM; that for `CCCCN(CCCC)c1ccc(/C=C2\C(=O)ON=C2c2ccccc2)cc1` was 1.4 nM. Take `O=C1ON=C(c2ccccc2F)/C1=C/c1ccc(N2CCCC2)cc1`: the Kd was determined as 1.4 nM.
